{"source": "paper PMC5152921", "about": "“Evolutionary and Functional Diversification of the Vitamin D Receptor-Lithocholic Acid Partnership” (PLoS ONE, 2016)", "target": "Medaka VDRα (Oryzias latipes, UniProt B2CCA0)", "sequence (B2CCA0 entry or part of it)": "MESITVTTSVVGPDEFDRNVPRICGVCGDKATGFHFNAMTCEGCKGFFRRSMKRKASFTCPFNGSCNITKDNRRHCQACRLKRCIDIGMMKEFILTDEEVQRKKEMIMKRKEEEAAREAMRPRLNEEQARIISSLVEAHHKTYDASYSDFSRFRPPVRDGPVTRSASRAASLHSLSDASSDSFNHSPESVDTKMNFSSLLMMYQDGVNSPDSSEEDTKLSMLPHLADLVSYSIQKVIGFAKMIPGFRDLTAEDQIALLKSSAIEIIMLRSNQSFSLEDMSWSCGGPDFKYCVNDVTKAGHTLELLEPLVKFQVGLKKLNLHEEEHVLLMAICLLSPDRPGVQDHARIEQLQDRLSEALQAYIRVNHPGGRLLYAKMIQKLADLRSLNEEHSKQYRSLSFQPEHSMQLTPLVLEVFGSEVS", "sequence (P19793 whole entry, further chain)": "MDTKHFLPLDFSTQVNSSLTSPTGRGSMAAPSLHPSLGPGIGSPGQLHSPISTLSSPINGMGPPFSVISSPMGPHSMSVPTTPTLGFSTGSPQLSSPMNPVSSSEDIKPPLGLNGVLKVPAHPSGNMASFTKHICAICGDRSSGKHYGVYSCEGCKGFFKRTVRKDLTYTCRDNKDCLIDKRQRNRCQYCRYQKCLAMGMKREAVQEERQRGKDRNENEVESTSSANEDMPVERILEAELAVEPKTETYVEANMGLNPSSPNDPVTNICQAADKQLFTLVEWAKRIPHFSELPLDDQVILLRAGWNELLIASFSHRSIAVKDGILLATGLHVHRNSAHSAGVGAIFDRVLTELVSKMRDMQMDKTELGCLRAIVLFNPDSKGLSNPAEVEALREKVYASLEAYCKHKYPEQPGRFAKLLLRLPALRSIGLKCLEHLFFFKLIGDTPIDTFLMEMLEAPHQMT", "experiment": "Transient transactivation assay (XREM-Luc, HepG2)", "assay_type": "cell-based", "conditions": "100 μM LCA", "protocol": "HepG2 cells (American Type Culture Collection #HB-8065) were cultured in T75 flasks with vented caps (Corning Life Sciences, Corning, NY) using Minimum Essential Medium (MEM) with phenol red supplemented with 10% fetal bovine serum, 1 mM sodium pyruvate, and 1X MEM non-essential amino acids. Cells were maintained following standard protocols in a 5% CO2 incubator set at 37°C, and split when 80–90% confluent.\nFor the transient transactivation assays, HepG2 cells were seeded in 96-well tissue culture plates at a density of 2.5x10^4 cells per well in complete phenol red-free MEM, and allowed to recover overnight. Transfections were performed the following day using Lipofectamine 2000 (Life Technologies, Grand Island, NY) as described previously. For functional comparisons, 89.7 ng/well of full-length pSG5-VDR was co-transfected with 19.2 ng/well human XREM-Luc reporter and 4.5 ng/well of pRL-CMV as an internal luciferase control. Coregulator studies included the addition of 18.3 ng/well of human coregulators (pCDNA-RXRWT, pCDNA-RXRAF2, pSG5-SRC1, pSG5-GRIP1 or pSG5-ACTR) where indicated. […] Controls include 120 nM 1,25D3 as a positive control, and ethanol as a vehicle control. Twenty-four hours post-exposure cells were tested for luciferase activity using the Dual-Glo Luciferase Assay System (Promega Corporation, Madison, WI) according to the manufacturer’s protocols. Luciferase data were first normalized to the pRL-CMV internal luciferase control. LCA-mediated VDR transactivation (fold activation) was calculated as the ratio of the VDR luciferase response relative to the empty vector control. To calculate the impact of coregulators on VDR transactivation, VDR response in the presence of coregulators was normalized to VDR alone. All experiments were repeated 3 times and conducted as groups of 4 replicate wells. VDR response in the absence of coregulators was analyzed using a 1-way ANOVA followed by Dunnett’s multiple comparisons test. To examine the effects of different coregulators on VDR activation, data were analyzed using a 2-way ANOVA followed by Bonferroni’s multiple comparisons test in GraphPad Prism (GraphPad Inc, San Diego, CA)."}
{"molecule": "C[C@H](CCC(=O)O)[C@H]1CC[C@H]2[C@@H]3CC[C@@H]4C[C@H](O)CC[C@]4(C)[C@H]3CC[C@]12C", "note": "[LCA, 5β-cholanic acid-3α-ol]", "values": [{"measurement": "Effect of exogenous human RXRWT on VDR transactivation", "setting": "co-transfected human RXRWT, vs VDR alone", "result": "significantly enhanced transactivation"}, {"measurement": "Effect of RXRWT+SRC1 or RXRWT+GRIP1 on VDR transactivation", "setting": "compared to either coregulator individually", "result": "significantly enhanced VDR transactivation"}]}
